Laboratory results published in patent US20170000749A1, “Methods for Treating Cognitive Disorders Using Inhibitors of Histone Deacetylase” (Forum Pharmaceuticals, Inc., priority 2008, published 2017).
Read-outs that look alike come from different tables or passages of the source.

Experiments:
[1] = target: one or more of HDAC-1, HDAC-2, HDAC-3, HDAC-4, HDAC-5, HDAC-6, HDAC-7, HDAC-8, HDAC-9, HDAC-10 and HDAC-11; assay: Inhibition of Histone Deacetylase Enzymatic Activity (Boc-Lys(Ac)-AMC substrate, Fluor-de-Lys developer); assay type: biochemical; settings: read-out: HDAC Inhibition (IC50 μM) HDAC Enzyme
Experimental: The following protocol is used to assay the compounds of the disclosure.
The mixture is pre-incubated for 5 minutes at room temperature. The reaction is started by bringing the temperature to 37° C. and adding 16 μl substrate. Total reaction volume is 50 μl.
In the Tables 8, 9 and 10, A≦0.05 μM; 0.05 μM<B≦0.1 μM; 0.1 μM<C≦1 μM; and 1 μM<D≦10 μM.

[2] = tested on: HDAC activity in primary mouse cortical cultures; assay: Whole-Cell Histone Deacetylase (HDAC) Inhibition Assay in Primary Mouse Cortical Cultures; assay type: cell-based
Experimental: Primary neocortical cultures are established through the dissection of the neocortex from E17 embryos harvested from time-pregnant Balb/C mice. Following dissection, the neocortical tissue specimens undergo digestion by incubation at 37° C. for 10 minutes in dissection medium (1×HBSS/10 mM HEPES/1 mM Sodium Pyruvate) supplemented with (0.25%) Trypsin and (0.1%) DNase I. Digested tissue is washed and resuspended in plating medium (NeuroBasal/10% HS/0.5 mM L-Glutamine (Invitrogen Corporation)) for trituration. Additional plating medium is added, and the contents are passed over a 70 um cell-strainer. The cell-density is quantified using a hemacytometer, and dilutions are made to allow for the plating of 50000 cells/well/100 uL in 96-well PDL-coated plates. Plates are incubated for 4-5 hours in 37° C./5% CO2-incubator, after which time the entire volume is exchanged to feeding medium (NeuroBasal/2% B-27 Serum-free supplement/0.5 mM L-Glutamine/1% Penicillin-Streptomycin (Invitrogen Corporation)). The cultures undergo two 50% fresh feeding medium exchanges at 3 days in vitro (DIV3), and again at DIV7.
Compounds for testing are resuspended in dimethyl sulphoxide (DMSO), and further diluted in DMSO for a ten-point dose-response curve, with appropriate controls. Each master plate is assayed in triplicate. […] Three DIV9 culture plates are leveled to 50 uL/well, onto which each has overlaid 50 uL/well of the diluted daughter plate. The plates are returned to the 37° C./5% CO2-incubator for 16-18 hours.
The next step of the assay involves the exposure of a HDAC colorimetric substrate, comprising an acetylated lysine side chain, to the compound-treated neuronal cultures. Based on the ability of the compound to inhibit HDAC activity in the neuronal cultures, the substrate is deacetylated by HDACs, and subsequently sensitized. […] Compound-incubated culture plates are again leveled to 50 uL/well and 2 uL/well of 7.5 mM BOC-Lys (Ac)-AMC substrate is added and thoroughly mixed. Plates are returned to the 37° C./5% CO2-incubator for 1 hour.
The final addition to the culture plates entails treatment with a Fluor de Lys™-based developer (BIOMOL Research Laboratories, Inc.) to produce a fluorophore, which is analyzed using a spectrophotometer. The developer solution (1×Fluor de Lys™/1% NP-40/1 uM TSA in HDAC Buffer Solution) is prepared, and 50 uL/well is added to each of the wells of the culture plates. […] The plates are returned to the 37° C./5% CO2-incubator for 10-15 minutes, after which time, they are removed and set in the dark at room temperature for 5-10 minutes.
Primary neocortical cultures were established through the dissection of the neocortex from E17 embryos harvested from time-pregnant Balb/C mice. Following dissection, the neocortical tissue specimens underwent digestion by incubation at 37° C. for 10 minutes in dissection medium (1×HBSS/10 mM HEPES/1 mM Sodium Pyruvate) supplemented with (0.25%) Trypsin and (0.1%) DNase I. Digested tissue was washed and resuspended in plating medium (NeuroBasal/10% HS/0.5 mM L-Glutamine (Invitrogen Corporation)) for trituration. Additional plating medium was added, and the contents passed over a 70 um cell-strainer. The cell-density was quantified using a hemacytometer, and dilutions made to allow for the plating of 50000 cells/well/100 uL in 96-well PDL-coated plates. Plates were incubated for 4-5 hours in 37° C./5% CO2-incubator, after which time the entire volume was exchanged to feeding medium (NeuroBasal/2% B-27 Serum-free supplement/0.5 mM L-Glutamine/l % Penicillin-Streptomycin (Invitrogen Corporation)). The cultures underwent two 50% fresh feeding medium exchanges at 3 days in vitro (DIV3), and again at DIV7.
Compounds for testing were resuspended in dimethyl sulphoxide (DMSO), and further diluted in DMSO for a ten-point dose-response curve, with appropriate controls. Each master plate was assayed in triplicate.

[3] = whole-cell (WC), mouse cortical neurons, Table 9, read-out: HDAC Inhibition (IC50 μM) WC mouse cortical neurons
[4] = whole-cell (WC), mouse cortical neurons, Table 8, read-out: HDAC Inhibition (IC50 μM) WC mouse cortical neurons
[5] = whole-cell (WC), mouse cortical neurons, Table 10, read-out: HDAC Inhibition (IC50 μM) WC mouse cortical neurons

Structure (SMILES)	IC50 ([1]; Table 9)	IC50 [2, 3]	IC50 ([1]; Table 8)	IC50 [2, 4]	further results
O=C(NO)c1cnc(N2C[C@@H]3C[C@H]2CN3c2cncc(C(F)(F)F)c2)nc1 [N-hydroxy-2-((1S,4S)-5-(5-(trifluoromethyl)pyridin-3-yl)-2,5-diazabicyclo[2.2.1]heptan-2-yl)pyrimidine-5-carboxamide]	< 0.05 µM	< 1 µM			
O=C(NO)c1ccc(C2=Nc3c(F)cccc3Oc3ccccc32)cc1 [(Z)-4-(9-fluorodibenzo[b,f][1,4]oxazepin-11-yl)-N-hydroxybenzamide]			0.05 to 0.1 µM	1 to 5 µM	
O=C(NO)c1ccc(C2=Nc3ccccc3N(C3CC3)c3ccccc32)cc1 [(Z)-4-(5-cyclopropyl-5H-dibenzo[b,e][1,4]diazepin-11-yl)-N-hydroxybenzamide]			0.1 to 1 µM	1 to 5 µM	
O=C(NO)c1ccc(C2=Nc3cc(Cl)ccc3Oc3ccccc32)cc1 [(Z)-4-(8-chlorodibenzo[b,f][1,4]oxazepin-11-yl)-N-hydroxybenzamide]			0.1 to 1 µM	5 to 15 µM	
O=C(NO)c1cnc(N2C[C@@H]3C[C@H]2CN3c2ccc(C(F)(F)F)cc2)nc1 [N-hydroxy-2-((1S,4S)-5-(4-(trifluoromethyl)phenyl)-2,5-diazabicyclo[2.2.1]heptan-2-yl)pyrimidine-5-carboxamide]	< 0.05 µM	1 to 5 µM			
O=C(NO)c1ccc(C2=Nc3ccsc3Oc3ccccc32)cc1 [(Z)-4-(benzo[f]thieno[2,3-b][1,4]oxazepin-5-yl)-N-hydroxybenzamide]			0.1 to 1 µM	1 to 5 µM	
O=C(NO)c1ccc(C2=Nc3ccccc3Oc3ccc(Cl)cc32)cc1 [(Z)-4-(2-chlorodibenzo[b,f][1,4]oxazepin-11-yl)-N-hydroxybenzamide]			< 0.05 µM	5 to 15 µM	
Cc1ccc(N2C[C@@H]3C[C@H]2CN3c2ccc(C(=O)NO)cc2)cc1 [N-hydroxy-4-((1S,4S)-5-p-tolyl-2,5-diazabicyclo[2.2.1]heptan-2-yl)benzamide]	0.1 to 1 µM	1 to 5 µM			
O=C(NO)c1ccc(CNC2=Nc3ccccc3Oc3ccccc32)cc1 [(E)-4-((dibenzo[b,f][1,4]oxazepin-11-ylamino)methyl)-N-hydroxybenzamide]			< 0.05 µM	< 1 µM	
O=C(NO)c1cnc(N2C[C@@H]3C[C@H]2CN3c2ccc(Cl)cc2)nc1 [2-((1S,4S)-5-(4-chlorophenyl)-2,5-diazabicyclo[2.2.1]heptan-2-yl)-N-hydroxypyrimidine-5-carboxamide]	< 0.05 µM	< 1 µM			
Cc1cccc(N2C[C@@H]3C[C@H]2CN3c2ncc(C(=O)NO)cn2)c1 [N-hydroxy-2-((1S,4S)-5-m-tolyl-2,5-diazabicyclo[2.2.1]heptan-2-yl)pyrimidine-5-carboxamide]	< 0.05 µM	< 1 µM			
N#Cc1cccc(N2CC3CC2CN3c2ncc(C(=O)NO)cn2)c1 (stereo not drawn) [2-(5-(3-cyanophenyl)-2,5-diazabicyclo[2.2.1]heptan-2-yl)-N-hydroxypyrimidine-5-carboxamide]	< 0.05 µM	< 1 µM			
O=C(NO)c1ccc(C2=Nc3ccccc3Oc3ccc(F)cc32)cc1 [(Z)-4-(2-fluorodibenzo[b,f][1,4]oxazepin-11-yl)-N-hydroxybenzamide]			< 0.05 µM	1 to 5 µM	
O=C(CCCCCCCN1C(=O)CN=C(c2ccccc2)c2ccccc21)NO [(Z)-N-hydroxy-8-(2-oxo-5-phenyl-2,3-dihydro-1H-benzo[e][1,4]diazepin-1-yl)octanamide]					IC50 ([1]; Table 10): 0.1 to 1 µM; IC50 ([2]; read-out: HDAC Inhibition (IC50 μM) WC mouse cortical neurons, Table 10): 1 to 5 µM
O=C(NO)c1ccc(C2=Nc3ccccc3Oc3ccccc32)cc1 [(Z)-4-(dibenzo[b,f][1,4]oxazepin-11-yl)-N-hydroxybenzamide]			< 0.05 µM	< 1 µM	
O=C(NO)c1ccc(C2=Nc3ccccc3Cn3cccc32)cc1 [(Z)-4-(5H-benzo[e]pyrrolo[1,2-a][1,4]diazepin-11-yl)-N-hydroxybenzamide]			< 0.05 µM	1 to 5 µM	
O=C(NO)c1cnc(N2C[C@@H]3C[C@H]2CN3c2cccc3nonc23)nc1 [2-((1S,4S)-5-(benzo[c][1,2,5]oxadiazol-4-yl)-2,5-diazabicyclo[2.2.1]heptan-2-yl)-N-hydroxypyrimidine-5-carboxamide]	< 0.05 µM	< 1 µM			
CN1CCC2=C(C1)Oc1ccccc1N(CCOc1ccc(C(=O)NO)cc1)C2=O					IC50 ([1]; Table 10): < 0.05 µM; IC50 [2, 5]: < 1 µM
O=C(NO)c1cnc(N2C[C@@H]3C[C@H]2CN3c2ccccc2C(F)(F)F)nc1 [N-hydroxy-2-((1S,4S)-5-(2-(trifluoromethyl)phenyl)-2,5-diazabicyclo[2.2.1]heptan-2-yl)pyrimidine-5-carboxamide]	0.1 to 1 µM	1 to 5 µM			
COc1cccc(N2CC3CC2CN3c2ccc(C(=O)NO)cc2)c1 (stereo not drawn) [N-hydroxy-4-(5-(3-methoxyphenyl)-2,5-diazabicyclo[2.2.1]heptan-2-yl)benzamide]	0.1 to 1 µM	1 to 5 µM			
CCN1c2ccccc2N=C(c2ccc(C(=O)NO)cc2)c2ccccc21 [(Z)-4-(5-ethyl-5H-dibenzo[b,e][1,4]diazepin-11-yl)-N-hydroxybenzamide]			0.05 to 0.1 µM	1 to 5 µM	
O=C(NO)c1cnc(N2C[C@@H]3C[C@H]2CN3c2cccc(OC(F)F)c2)nc1 [2-((1S,4S)-5-(3-(difluoromethoxy)phenyl)-2,5-diazabicyclo[2.2.1]heptan-2-yl)-N-hydroxypyrimidine-5-carboxamide]	< 0.05 µM	< 1 µM			
O=C(CCCCCCN1C(=O)c2cccnc2N(C2CC2)c2ccccc21)NO [7-(11-cyclopropyl-5-oxo-5H-benzo[b]pyrido[2,3-e][1,4]diazepin-6(11H)-yl)-N-hydroxyheptanamide]					IC50 ([1]; Table 10): 0.05 to 0.1 µM; IC50 [2, 5]: 1 to 5 µM
O=C(NO)c1cnc(NC2c3ccccc3C=Cc3ccccc32)nc1					IC50 ([1]; Table 10): < 0.05 µM; IC50 [2, 5]: < 1 µM
CN1c2ccccc2Oc2ccccc2C1c1ccc(C(=O)NO)cc1 (stereo not drawn) [N-hydroxy-4-(10-methyl-10,11-dihydrodibenzo[b,f][1,4]oxazepin-11-yl)benzamide]			0.1 to 1 µM	5 to 15 µM	
O=C(NO)c1cnc(N2CC3CC(CN(c4cc(C(F)(F)F)ccn4)C3)C2)nc1 [N-hydroxy-2-(7-(4-(trifluoromethyl)pyridin-2-yl)-3,7-diazabicyclo[3.3.1]nonan-3-yl)pyrimidine-5-carboxamide]	0.1 to 1 µM	> 15 µM			
O=C(NO)c1cnc(NC(c2ccccn2)c2ccccn2)nc1 [2-(dipyridin-2-ylmethylamino)-N-hydroxypyrimidine-5-carboxamide]					IC50 [2, 5]: < 1 µM
O=C(NO)c1ccc(N2C[C@@H]3C[C@H]2CN3c2nccc(C(F)(F)F)n2)cc1 [N-hydroxy-4-((1S,4S)-5-(4-(trifluoromethyl)pyrimidin-2-yl)-2,5-diazabicyclo[2.2.1]heptan-2-yl)benzamide]		1 to 5 µM			
